Consider 21 molecules from ChEMBL document CHEMBL1136265, “Dihydropyrimidinones--a new class of anti-staphylococcal antibiotics” (Bioorg Med Chem Lett, 2003).

Assay [1] is described as follows: In vitro inhibition of eucaryotic translation using […]. In kind it is functional.
A further assay has as its system Staphylococcus aureus. As to the kind of experiment: Minimum inhibitory concentration against Staphylococcus aureus in vitro. In kind it is functional.
In another assay the test system is Escherichia coli. As to the kind of experiment: In vitro inhibition of procaryotic translation using Escherichia coli S30 Extract system for Circular DNA. The assay is classed as functional.
Assay [2] can be described thus: In vitro selectivity ratio of procaryotic translation to eukaryotic translation. The assay is classed as functional.
A further assay relates to Mus musculus. As to the kind of experiment: In vivo inhibitory activity against Staphylococcus aureus 133 after iv dose using murine sepsis model. The assay is classed as functional.
Another assay concerns J774. Nature of the assay: Cytotoxicity against macrophage cell line (J774). In kind it is functional, cell-based. The settings on record: Mus musculus.

SMILES strings stand for the structures. pEC50, pIC50: −log10 of the molar value. Converted amounts (≈) assume the structure as drawn.

As a reminder, the pIC50 is −log10 of the IC50, conventionally taken in molar units. Higher therefore signals a small IC50. As usually defined, the MIC is the least concentration at which growth counts as inhibited. Regarding `CN(C(=O)C[C@H](N)CCCN)C1CN=C(NC(N)=O)NC1=O.Cl.Cl` (some centres not stated), the pIC50 was 5.03 in assay [1] and 5.22 in the assay with Escherichia coli. For the same molecule, in the assay with Staphylococcus aureus, the lowest concentration to inhibit growth (MIC) was 6.3 µg/mL. Moreover, the Selectivity ratio in assay [2] is 1.6.

On to `Br.Br.CN(C(=O)C[C@@H](N)CCCNC1=NCCN1)C1CN=C(NC(N)=O)NC1=O` (some centres not stated), for which the pIC50 (in assay [1]; in the assay on Escherichia coli) was 5.03 each time. In the assay on Staphylococcus aureus, this molecule yielded an MIC of 12.5 µg/mL. Besides, the Selectivity ratio in assay [2] was found to be 1.

In the case of `CN(C(=O)C[C@@H](N)CC[C@H](N)CO)C1CN=C(NC(N)=O)NC1=O.Cl.Cl` (some centres not stated), the pIC50 (in assay [1]; in the assay with Escherichia coli) was 5.62 in each case. Further, in the assay on Staphylococcus aureus, the MIC came out at 3.2 µg/mL. Moreover, in assay [2], the Selectivity ratio amounted to 1.

On to `CN(C(=O)C[C@@H](N)CC(=O)CCN)C1CN=C(NC(N)=O)NC1=O.Cl.Cl` (some centres not stated), for which 3.2 µg/mL was the least that counted as inhibitory against Staphylococcus aureus (MIC). This molecule gave a negative logarithm of the IC50 (pIC50) in the assay with Escherichia coli of 5.52.

As to `CN(C(=O)CC(N)CCCO)C1CN=C(NC(N)=O)NC1=O.Cl` (configuration not stated), in the assay on Staphylococcus aureus, the MIC turned out to be 100 µg/mL. In addition, the negative logarithm of the IC50 (pIC50) with Escherichia coli was below 4.19.

In assay [1], `C/C(N)=N/CCC[C@H](N)CC(=O)N(C)C1CN=C(NC(N)=O)NC1=O.Cl.Cl` (some centres not stated) gave a pIC50 of 6.22. The molecule further yielded an MIC with Staphylococcus aureus of 0.4 µg/mL. For the same molecule, in assay [2], the Selectivity ratio was found to be 0.17.

For `CN(C(=O)C[C@@H](N)CCCC#N)C1CN=C(NC(N)=O)NC1=O.Cl` (some centres not stated), the negative logarithm of the IC50 (pIC50) (in assay [1]; in the assay on Escherichia coli) was 4.60 throughout. For the same molecule, the MIC against Staphylococcus aureus came out at 50 µg/mL. For the same molecule, the Selectivity ratio in assay [2] came to 1.

Turning to `CN(C(=O)C[C@@H](N)CCCCN=C(N)N)C1CN=C(NC(N)=O)NC1=O.Cl.Cl` (some centres not stated), the pIC50 in assay [1] was 5.80; with Escherichia coli it was 6.52. The molecule also gave an MIC against Staphylococcus aureus of 0.2 µg/mL. In addition, the Selectivity ratio in assay [2] came to 5.3.

`CN(C(=O)C[C@@H](N)CCC(N)=O)C1CN=C(NC(N)=O)NC1=O.Cl` (some centres not stated) returned an MIC against Staphylococcus aureus of 12.5 µg/mL. In the assay on Escherichia coli, this molecule showed a negative logarithm of the IC50 (pIC50) of 4.19.

As usually defined, the pEC50 is the negative decadic logarithm of the EC50, by convention in mol/L. Lower therefore signals a large EC50. Take `CN(C(=O)C[C@@H](N)CCCN=C(N)N)C1CN=C(NC(N)=O)NC1=O.Cl.Cl` (some centres not stated): in assay [1], the pIC50 was 6.77. The MIC in the assay with Staphylococcus aureus was determined as 0.1 µg/mL. The molecule further came in with an ED100 in the assay with Mus musculus of 0.25 mg/kg. The Selectivity ratio in assay [2] amounted to 0.57. Moreover, the pEC50 with J774 is 6.60.

For the molecule `C/N=C(/N)NCCC[C@H](N)CC(=O)N(C)C1CN=C(NC(N)=O)NC1=O.Cl.Cl` (some centres not stated), in assay [1], the pIC50 was 5.35. In addition, the MIC against Staphylococcus aureus is 0.8 µg/mL. For the same molecule, the ED100 in the assay on Mus musculus was found to be 2 mg/kg. Further, the Selectivity ratio in assay [2] turned out to be 9.1. Also, the pEC50 with J774 is 5.26.

Regarding `CCNCCC[C@H](N)CC(=O)N(C)C1CN=C(NC(N)=O)NC1=O.Cl.Cl` (some centres not stated), the pIC50 in assay [1] is 5.12; in the assay with Escherichia coli it was 5.40. This molecule also gave a minimum inhibitory concentration (MIC) in the assay with Staphylococcus aureus of 0.8 µg/mL. In addition, the Selectivity ratio in assay [2] came out at 1.9.

As to `CN(C(=O)CC(N)c1cccc(NC(=N)N)c1)C1CN=C(NC(N)=O)NC1=O.Cl.Cl` (configuration not stated), the pIC50 in assay [1] is 6.59; in the assay with Escherichia coli, 6.30. The MIC against Staphylococcus aureus is 50 µg/mL. The Selectivity ratio in assay [2] came out at 0.52.

Take `CN(C(=O)C[C@@H](N)CCC/N=C(/N)S)C1CN=C(NC(N)=O)NC1=O.Cl` (some centres not stated): the pIC50 (in assay [1]; with Escherichia coli) was 6.70 each time. In the assay on Staphylococcus aureus, it took 0.4 µg/mL to inhibit growth (MIC). The Selectivity ratio in assay [2] was 1.

In the case of `CC(N)CCC(N)CC(=O)N(C)C1CN=C(NC(N)=O)NC1=O.Cl.Cl` (configuration not stated), the negative logarithm of the IC50 (pIC50) in assay [1] is 5.92; with Escherichia coli, 6.00. The molecule further displayed an MIC in the assay with Staphylococcus aureus of 0.4 µg/mL. Moreover, the Selectivity ratio in assay [2] stood at 1.2.

In the case of `CN(C(=O)C[C@@H](N)CCCN)C1CN=C(NC(N)=O)NC1=O.Cl.Cl` (some centres not stated), the negative-log IC50 (pIC50) was 5.43 in assay [1] and 5.70 with Escherichia coli. In addition, in the assay on Staphylococcus aureus, it took 0.4 µg/mL to inhibit growth (MIC). The ED100 in the assay on Mus musculus was found to be 0.2 mg/kg. Also, the Selectivity ratio in assay [2] worked out at 1.9. Also, the negative-log EC50 (pEC50) in the assay with J774 was 4.60.

As to `CN(C(=O)C[C@@H](N)CC(O)CCN)C1CN=C(NC(N)=O)NC1=O.Cl.Cl` (some centres not stated), the negative logarithm of the IC50 (pIC50) was 5.49 in assay [1] and 5.52 in the assay with Escherichia coli. Also, the minimum inhibitory concentration (MIC) in the assay with Staphylococcus aureus was 0.4 µg/mL.

In turn, `CN(C(=O)CC(N)CC1CNCCO1)C1CN=C(NC(N)=O)NC1=O.Cl.Cl` (configuration not stated) displayed a minimal inhibitory concentration (MIC) with Staphylococcus aureus of 6.3 µg/mL. In addition, the negative-log IC50 (pIC50) in the assay on Escherichia coli is 5.82.

In the case of `CN(C(=O)C[C@@H](N)CCCCN)C1CN=C(NC(N)=O)NC1=O.Cl.Cl` (some centres not stated), the pIC50 in assay [1] was 5.55. This molecule also showed a minimum inhibitory concentration (MIC) in the assay on Staphylococcus aureus of 0.05 µg/mL. The molecule further returned an ED100 in the assay on Mus musculus of 0.25 mg/kg. The Selectivity ratio in assay [2] amounted to 5.3. Moreover, the pEC50 with J774 is 5.22.

On to `COC(=O)NCCC[C@H](N)CC(=O)N(C)C1CN=C(NC(N)=O)NC1=O` (some centres not stated), for which, in the assay with Staphylococcus aureus, the MIC was 100 µg/mL (≈ 269 µM). In the assay with Escherichia coli, this molecule gave a negative-log IC50 (pIC50) below 4.19.

On to `CN(C(=O)C[C@@H](N)CCN=C(N)N)C1CN=C(NC(N)=O)NC1=O.Cl.Cl` (some centres not stated), for which the pIC50 (in assay [1]; in the assay with Escherichia coli) was 5.92 each time. Further, in the assay on Staphylococcus aureus, it took 25 µg/mL to inhibit growth (MIC). For the same molecule, in assay [2], the Selectivity ratio is 1.
